Laboratory results reported in paper PMC9611521, “Optimization of Resveratrol Used as a Scaffold to Design Histone Deacetylase (HDAC-1 and HDAC-2) Inhibitors” (Pharmaceuticals, 2022).

Experiments:
Type in all cases: biochemical
Conditions in all cases: compound at 10 µM
[1] = target: T1, HDAC-10 (Homo sapiens, UniProt Q969S8); test: Enzymatic HDAC selectivity panel, HDAC-10
T1 sequence (Q969S8 1-669): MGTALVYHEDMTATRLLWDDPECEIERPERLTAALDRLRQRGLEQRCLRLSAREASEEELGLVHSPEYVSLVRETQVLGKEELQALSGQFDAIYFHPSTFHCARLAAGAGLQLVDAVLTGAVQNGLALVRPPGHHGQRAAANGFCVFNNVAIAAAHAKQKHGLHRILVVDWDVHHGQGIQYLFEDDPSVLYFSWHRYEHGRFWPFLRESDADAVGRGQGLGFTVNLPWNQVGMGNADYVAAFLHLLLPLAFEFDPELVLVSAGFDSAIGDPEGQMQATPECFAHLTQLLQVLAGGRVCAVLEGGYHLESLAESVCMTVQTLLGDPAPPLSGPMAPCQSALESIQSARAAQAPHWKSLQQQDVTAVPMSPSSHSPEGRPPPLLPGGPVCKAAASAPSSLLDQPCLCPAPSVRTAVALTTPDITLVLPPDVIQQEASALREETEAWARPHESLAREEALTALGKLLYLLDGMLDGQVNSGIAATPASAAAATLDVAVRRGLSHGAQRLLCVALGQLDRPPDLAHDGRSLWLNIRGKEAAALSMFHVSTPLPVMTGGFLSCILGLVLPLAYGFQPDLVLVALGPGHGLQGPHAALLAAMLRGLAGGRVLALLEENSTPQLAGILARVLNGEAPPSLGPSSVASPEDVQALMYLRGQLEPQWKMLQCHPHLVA
Description: (§1) Enzymatic assays to evaluate HDAC inhibition were performed, and the design involved three steps: (a) Preliminary screening to identify the most promising compounds; (b) Evaluation by a panel of HDAC isoforms to investigate selectivity; and (c) Determination of IC50 values. Firstly, compounds (4–7; 15–26) were evaluated at 10 µM against HDAC-1 and HDAC-2 (Table 2).
(§2) The enzymatic assay to evaluate HDAC inhibitory effects for all final compounds against the distinct isoforms was carried out in accordance with the previously described procedures (Lopes et al., 2021). All compounds were initially screened at 10 µM against HDAC-1 and HDAC-2. […] All the compounds were dissolved in DMSO. A serial dilution of the compounds was performed in 100% DMSO with the highest concentration at 1 mM. Each intermediate compound dilution (in 100% DMSO) was diluted 10x in assay buffer to form a 10% DMSO intermediate dilution in HDAC assay buffer. 5 µL of this dilution was added to a 50 µL reaction to bring the final concentration of DMSO to 1% in all the reactions. […] The fluorescence intensity was measured at an excitation of 360 nm and emission of 460 nm using a Tecan Infinite M1000 microplate reader, and the percentage of activity was calculated using the formula: % activity = (F − Fb)/(Ft − Fb), where F = the intensity of fluorescence in the presence of the compound. […]

[2] = target: T2, HDAC-7 (Homo sapiens, UniProt Q8WUI4); test: Enzymatic HDAC selectivity panel, HDAC-7
T2 sequence (Q8WUI4 1-952): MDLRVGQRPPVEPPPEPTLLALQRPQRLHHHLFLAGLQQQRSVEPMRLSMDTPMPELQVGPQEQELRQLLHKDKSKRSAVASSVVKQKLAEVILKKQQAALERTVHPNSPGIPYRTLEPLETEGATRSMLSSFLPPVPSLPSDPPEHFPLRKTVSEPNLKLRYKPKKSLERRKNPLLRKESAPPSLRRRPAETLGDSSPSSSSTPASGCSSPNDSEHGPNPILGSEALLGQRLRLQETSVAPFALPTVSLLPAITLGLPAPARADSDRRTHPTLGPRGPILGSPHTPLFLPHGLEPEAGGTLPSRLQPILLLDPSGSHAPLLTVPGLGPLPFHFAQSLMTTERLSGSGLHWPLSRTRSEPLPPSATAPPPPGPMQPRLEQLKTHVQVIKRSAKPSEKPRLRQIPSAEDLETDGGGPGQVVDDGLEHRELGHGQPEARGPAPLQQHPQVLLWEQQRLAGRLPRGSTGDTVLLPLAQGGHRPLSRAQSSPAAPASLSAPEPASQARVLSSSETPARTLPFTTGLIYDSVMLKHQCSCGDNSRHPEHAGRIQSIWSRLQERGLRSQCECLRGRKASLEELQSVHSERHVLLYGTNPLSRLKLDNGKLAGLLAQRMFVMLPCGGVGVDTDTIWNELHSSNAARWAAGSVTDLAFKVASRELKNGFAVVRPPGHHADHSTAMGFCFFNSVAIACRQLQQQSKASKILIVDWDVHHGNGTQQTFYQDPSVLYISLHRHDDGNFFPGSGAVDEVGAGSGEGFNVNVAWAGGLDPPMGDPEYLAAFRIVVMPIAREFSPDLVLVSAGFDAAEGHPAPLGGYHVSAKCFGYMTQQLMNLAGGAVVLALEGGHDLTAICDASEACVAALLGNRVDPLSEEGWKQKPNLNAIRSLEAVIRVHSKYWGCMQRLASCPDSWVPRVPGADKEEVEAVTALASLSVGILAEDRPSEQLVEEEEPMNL
Description: as §1, §2

[3] = target: T3, HDAC-11 (Homo sapiens, UniProt Q96DB2); test: Enzymatic HDAC selectivity panel, HDAC-11
T3 sequence (Q96DB2 1-347): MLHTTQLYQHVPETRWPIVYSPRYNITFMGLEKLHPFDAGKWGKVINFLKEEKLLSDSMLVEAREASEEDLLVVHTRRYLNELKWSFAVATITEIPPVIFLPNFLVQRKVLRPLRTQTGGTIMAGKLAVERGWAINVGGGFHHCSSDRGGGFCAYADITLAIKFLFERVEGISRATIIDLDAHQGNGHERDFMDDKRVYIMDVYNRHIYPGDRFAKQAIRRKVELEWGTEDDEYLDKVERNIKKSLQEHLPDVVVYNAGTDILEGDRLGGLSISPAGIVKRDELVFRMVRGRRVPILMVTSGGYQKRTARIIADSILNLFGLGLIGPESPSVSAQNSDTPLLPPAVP
Description: as §1, §2

Nc1ccc(CCc2ccc(C(=O)Nc3ccccc3N)cc2)cc1 [Compound (5)]
inhibition at 10 µM [1]: 60 ± 1.4% | inhibition at 10 µM [2]: 15 ± 0.7% | inhibition at 10 µM [3]: 15 ± 0.6%
